Values quoted from earlier work in US20220304972A1, “COMBINATION THERAPY AND BIOMARKER INDICATING EFFICACY THEREOF” (Sumitomo Dainippon Pharma Co., Ltd., priority 2019, published 2022).
Read-outs that look alike come from different tables or passages of the source.

Test system: CRC patients

pembrolizumab: anti-PD-1 antibody, binds to PD-1
ORR (MSS CRC, N=18, Le et al. 2015, NCT01876511): 0 | ORR (PD-1 positive MSS CRC, N=22, O' Neil et al. 2017, NCT02054806): 0

atezolizumab: anti-PD-L1 antibody, binds to PD-L1
ORR (MSS CRC, N=90 (2/90), Bendell et al. 2018, NCT02788279): 2.2%

nivolumab: anti-PD-1 antibody, binds to PD-1
ORR (CRC, N=14 (1/14), Brahmer 2010): 7 | ORR (Refractory CRC, N=19, Topialan et al. 2012, NCT00730639): 0
